Experimental data taken from the NIST ThermoML archive (doi:10.1016/j.fluid.2005.11.017).
Where “and” joins values, the source holds several entries; their conditions need not be identical. Equal entries are not always repeated. ± gives the expanded uncertainty stated by the source.

Conditions: 313.15 K; Liquid

Structure (SMILES)	vapor or sublimation pressure
CC(C)CO [2-methyl-1-propanol]	4.015 ± 0.056 kPa [middle of 4 runs]
c1ccccc1 [benzene]	24.38 ± 0.18 kPa and 24.36 ± 0.18 kPa
CC(C)OC(C)C [diisopropyl ether]	37.11 ± 0.27 kPa and 37.09 ± 0.27 kPa and 37.14 ± 0.27 kPa
